Laboratory results taken from patent US20140017223A1, “Pharmaceutical Compositions Comprising A Pancreatic Enzyme Preparation With Viral Infectivity Reduced Below A Significant Level And Methods Of Preparing And Using The Same” (Aptalis Pharma Canada Inc., priority 2010, published 2014).

Tested on: PPV
Experiment: Inactivation of spiked PPV in pancrelipase (PEP) by BPL, PPV titered by dilution method (Example 1)
Type: cell-based, porcine parvovirus (PPV)
Conditions: 48 h, 20° C.; for Detected PPV Titer: 0*=below detection limit of 10^3 FFID50/g
Protocol: For example, two preparations can be tested for PPV or another virus on one 96-well plate, with the positive controls incubated on another parallel plate. For PPV the samples can be serially diluted (for example, 1:4 in each step for a total of 8 dilutions) in cell culture medium prior to application and incubated with cell cultures for at least 5 days at 37° C. in 5% CO2. After sample removal and the fixation of the cells by paraformaldehyde, the presence of PPV (or other) virus infection is monitored in each well by an anti-PPV antibody using a standard immunofluorescent assay. The number of wells that contain positively stained cells are recorded in a table. Fluorescence Focus Infectious Doses (FFID50) are calculated according to the Karber formula: […]
All data are recalculated for 1-gram dry PEP, e.g., pancrelipase, sample after the consideration of processed sample volumes and dilutions. In certain embodiments, the assay is repeated several times using six parallel wells to quantify the level of infectious viruses.
Pancrelipase powders from 2 different lots were each dissolved in 100 mM Tris, pH=8.3, at a concentration of 100 mg/ml. Two ml non-purified PPV viral stock (prepared using standard protocols (Arella et al., Physicichemical properties, production, and purification of parvoviruses. 1990, In Tijssen, P. (ed.), CRC handbook of parvoviruses. Boca Raton, Fla.: CRC Press, 11-30)) were added to 38 ml of the pancrelipase solution. The virus was mixed with the PEP using slow shaking at room temperature for one day. Aliquots were taken from the PPV-spiked pancrelipase stocks and each was incubated with different concentrations of BPL (available from Sigma-Aldrich, St. Louis, Mo.) (except the control) for 48 hours at room temperature (20° C.). The level of viral inactivation was measured by the titration of PPV infectivity using serial dilutions of 1,000 times or more since the titer of spiked virus was high. Determination of the FFID50 was performed using the fluorescence assay as described in the PPV FFID-infectivity assay of U.S. Patent Publication No. 2009/0226414.

O=C1CCO1 [BPL, Beta-propiolactone]
4.22 × 10^3 FFID50/g: PPV Titer reduction (PEP #3, 0.1% (v/v) BPL)
>10^5 FFID50/g: PPV Titer reduction (PEP #1, 0.2% (v/v) BPL) | PPV Titer reduction (PEP #1, 0.4% (v/v) BPL) | PPV Titer reduction (PEP #1, 0.8% (v/v) BPL) | PPV Titer reduction (PEP #2, 0.2% (v/v) BPL) | PPV Titer reduction (PEP #2, 0.4% (v/v) BPL) | PPV Titer reduction (PEP #2, 0.8% (v/v) BPL) | PPV Titer reduction (PEP #3, 0.2% (v/v) BPL) | PPV Titer reduction (PEP #3, 0.4% (v/v) BPL) | PPV Titer reduction (PEP #3, 0.8% (v/v) BPL) | PPV Titer reduction (PEP #4, 0.2% (v/v) BPL) | PPV Titer reduction (PEP #4, 0.4% (v/v) BPL) | PPV Titer reduction (PEP #4, 0.8% (v/v) BPL)
2.37 × 10^3 FFID50/g: PPV Titer reduction (PEP #1, 0.1% (v/v) BPL) | PPV Titer reduction (PEP #2, 0.1% (v/v) BPL)
4.22 × 10^4 FFID50/g: Detected PPV Titer (PEP #1, 0.1% (v/v) BPL) | Detected PPV Titer (PEP #2, 0.1% (v/v) BPL)
5.62 × 10^4 FFID50/g: Detected PPV Titer (PEP #3, 0.1% (v/v) BPL)
< 0* FFID50/g: Detected PPV Titer (PEP #1, 0.2% (v/v) BPL) | Detected PPV Titer (PEP #1, 0.4% (v/v) BPL) | Detected PPV Titer (PEP #1, 0.8% (v/v) BPL) | Detected PPV Titer (PEP #2, 0.2% (v/v) BPL) | Detected PPV Titer (PEP #2, 0.4% (v/v) BPL) | Detected PPV Titer (PEP #2, 0.8% (v/v) BPL) | Detected PPV Titer (PEP #3, 0.2% (v/v) BPL) | Detected PPV Titer (PEP #3, 0.4% (v/v) BPL) | Detected PPV Titer (PEP #3, 0.8% (v/v) BPL) | Detected PPV Titer (PEP #4, 0.1% (v/v) BPL) | Detected PPV Titer (PEP #4, 0.2% (v/v) BPL) | Detected PPV Titer (PEP #4, 0.4% (v/v) BPL) | Detected PPV Titer (PEP #4, 0.8% (v/v) BPL)
1.33 × 10^8 FFID50/g: PPV Titer reduction (PEP #4, 0.1% (v/v) BPL)
